Test results reported in patent publication US12588678B2, “Oxazoline compound, synthesis method therefor and application thereof” (NANKAI UNIVERSITY, priority 2019, dated 2026).

Key:
[1] = test system: Tetranychus cinnabarinus mite larvae; assay: Larvicidal activity test, dipping method on bean seedling leaves; type: in vivo; conditions: for mortality at 0.1 µg/mL / mortality at 1 µg/mL / mortality at 10 µg/mL / mortality at 100 µg/mL / mortality at 200 µg/mL / mortality at 0.01 µg/mL / mortality at 0.05 µg/mL / mortality at 0.001 µg/mL / mortality at 0.5 µg/mL: Tetranychus cinnabarinus, 96 h, checked after 4 days; for mortality at 0.1 µg/mL: read-out: mortality of mite larvae (%), 0.1 mg/L; for mortality at 1 µg/mL: read-out: mortality of mite larvae (%), 1 mg/L; for mortality at 10 µg/mL: read-out: mortality of mite larvae (%), 10 mg/L; for mortality at 100 µg/mL: read-out: mortality of mite larvae (%), 100 mg/L; for mortality at 200 µg/mL: read-out: mortality of mite larvae (%), 200 mg/L; for acaricidal activity compared with etoxazole: Tetranychus cinnabarinus eggs and larvae, etoxazole as reference; for mortality at 0.01 µg/mL: read-out: mortality of mite larvae (%), 0.01 mg/L; for mortality at 0.05 µg/mL: read-out: mortality of mite larvae (%), 0.05 mg/L; for mortality at 0.001 µg/mL: read-out: mortality of mite larvae (%), 0.001 mg/L; for mortality at 0.5 µg/mL: read-out: mortality of mite larvae (%), 0.5 mg/L
Text: (§1) The assay examples are used to illustrate the acaricidal activity against Tetranychus cinnabarinus (mortality of mite larvae and mortality of mite eggs) of the compounds having the structure represented by formula (I), and the results are shown in tables 1 to 9, where mortality of mite larvae % =(number of dead mite larvae applied/total number of mite larvae applied)×100, and mortality of mite eggs %= (number of dead mite eggs applied/total number of mite eggs applied)×100.
Tetranychus cinnabarinus bred indoors on bean seedlings was used as a test subject by the dipping method. Move adult mites onto the newly grown complete bean seedling leaves with two leaves, cut off the bean seedlings, place the bean seedlings in a greenhouse with illumination at 25° C. for laying eggs for 24 hours, then remove adult mites and keep mite eggs. And continuously culture in the greenhouse for 5 days until mite eggs hatch into mite larvae (ensuring that the number of the mites on each tested leaf is not less than 60).
Completely immerse the bean seedling leaves containing the mite larvae into the sample solution to be detected with Tween at the prepared concentration for 5-6 seconds by using tweezers, slightly throw off residual liquid, put the bean seedling leaves back to the culture cup, continuously culture for 4 days and check the result. One of the plants was immersed in a solution containing no sample to be tested and the remaining additives were identical to the sample solution as a blank control. Each compound was replicated three times.

[2] = test system: Tetranychus cinnabarinus mite eggs; assay: Activity against mite eggs, dipping method on bean seedling leaves; type: in vivo; conditions: for mortality at 1 µg/mL / mortality at 10 µg/mL / mortality at 100 µg/mL / mortality at 200 µg/mL / mortality at 0.1 µg/mL / mortality at 0.01 µg/mL / mortality at 0.05 µg/mL / mortality at 0.001 µg/mL / mortality at 0.5 µg/mL: Tetranychus cinnabarinus, 96 h, checked after 4 days; for mortality at 1 µg/mL: read-out: mortality of mite eggs (%), 1 mg/L; for mortality at 10 µg/mL: read-out: mortality of mite eggs (%), 10 mg/L; for mortality at 100 µg/mL: read-out: mortality of mite eggs (%), 100 mg/L; for mortality at 200 µg/mL: read-out: mortality of mite eggs (%), 200 mg/L; for mortality at 0.1 µg/mL: read-out: mortality of mite eggs (%), 0.1 mg/L; for mortality at 0.01 µg/mL: read-out: mortality of mite eggs (%), 0.01 mg/L; for mortality at 0.05 µg/mL: read-out: mortality of mite eggs (%), 0.05 mg/L; for mortality at 0.001 µg/mL: read-out: mortality of mite eggs (%), 0.001 mg/L; for mortality at 0.5 µg/mL: read-out: mortality of mite eggs (%), 0.5 mg/L; for activity on mite eggs, times that of etoxazole: relative to etoxazole
Text: as §1
Tetranychus cinnabarinus bred indoors on bean seedlings was used as a test subject by the dipping method. Move female adult mites onto the newly grown complete bean seedling leaves with two leaves, cut off the bean seedlings, place the bean seedlings in a greenhouse with illumination at 25° C. for laying eggs for 24 hours, then remove adult mites and keep mite eggs. After continuously culturing in the greenhouse for one day, completely soak the bean seedling leaves containing the acarid eggs into the prepared sample solution to be tested for 5-6 seconds by using tweezers, slightly throw off residual liquid, put the bean seedling leaves back to the culture cup, continuously culture for 4 days and then check the result. One of the plants was immersed in a solution containing no sample to be tested and the remaining additives were identical to the sample solution as a blank control. Each compound was replicated three times.

Compound | mortality at 0.1 µg/mL [1] [%] | mortality at 1 µg/mL [1] [%] | mortality at 10 µg/mL [1] [%] | mortality at 100 µg/mL [1] [%] | mortality at 200 µg/mL [1] [%] | mortality at 1 µg/mL [2] [%] | mortality at 10 µg/mL [2] [%] | mortality at 100 µg/mL [2] [%] | mortality at 200 µg/mL [2] [%] | mortality at 0.1 µg/mL [2] [%] | acaricidal activity compared with etoxazole [1] | mortality at 0.01 µg/mL [1] [%] | mortality at 0.01 µg/mL [2] [%] | other results
O=S(=O)(Oc1ccc(C2COC(c3c(F)cccc3F)=N2)cc1)c1ccc(C(F)(F)F)cc1 (stereo not shown) [Compound R3-13] | 60 | 80 | 95 | 100 | 100 | 70 | 90 | 100 | 100 | – | – | – | – | –
O=S(=O)(Oc1ccc(C2COC(c3c(F)cccc3F)=N2)cc1)c1ccc(F)c(F)c1F (stereo not shown) [Compound R3-15] | 65 | 90 | 100 | 100 | 100 | 65 | 95 | 100 | 100 | – | – | – | – | –
O=S(=O)(Oc1ccc(C2COC(c3c(F)cccc3F)=N2)cc1)c1ccc2c(c1)OCCO2 (stereo not shown) [Compound R3-18] | – | 50 | 70 | 90 | 100 | – | 50 | 70 | 100 | – | – | – | – | –
COCc1ccc(C2COC(c3c(F)cccc3F)=N2)cc1 (stereo not shown) [Compound R2-1] | 50 | 85 | 100 | 100 | 100 | 97 | 100 | 100 | 100 | 60 | – | – | – | –
Fc1cccc(F)c1C1=NC(c2ccc(Cn3ccc4ccccc43)cc2)CO1 (stereo not shown) [Compound R1-15] | 65 | 80 | 90 | 100 | 100 | 90 | 100 | 100 | 100 | 80 | higher acaricidal activity than etoxazole | 35 | 35 | mortality at 0.05 µg/mL [1]: 50%; mortality at 0.05 µg/mL [2]: 65%
Cc1ccc(S(=O)(=O)Oc2ccc(C3COC(c4c(F)cccc4F)=N3)cc2)cc1 (stereo not shown) [Compound R3-16] | – | 70 | 85 | 100 | 100 | 50 | 70 | 92 | 100 | – | – | – | – | –
Fc1cccc(F)c1C1=NC(c2ccc(COc3ccc(Cl)cc3)cc2)CO1 (stereo not shown) [Compound R2-19] | 85 | 88 | 90 | 100 | 100 | 90 | 100 | 100 | 100 | – | higher acaricidal activity than etoxazole | 30 | 32 | mortality at 0.001 µg/mL [1]: 8%; mortality at 0.5 µg/mL [1]: 72%; mortality at 0.001 µg/mL [2]: 10%; mortality at 0.5 µg/mL [2]: 80%
Fc1cccc(F)c1C1=NC(c2ccc(COc3ccc4ccccc4c3)cc2)CO1 (stereo not shown) [Compound R2-24] | 85 | 100 | 100 | 100 | 100 | 80 | 95 | 100 | 100 | 70 | higher acaricidal activity than etoxazole | 50 | 50 | mortality at 0.001 µg/mL [1]: 20%; mortality at 0.5 µg/mL [1]: 80%; mortality at 0.001 µg/mL [2]: 28%; mortality at 0.5 µg/mL [2]: 85%
O=S(=O)(Oc1ccc(C2COC(c3c(F)cccc3F)=N2)cc1)c1cccc2ccccc12 (stereo not shown) [Compound R3-20] | – | 55 | 80 | 90 | 100 | 30 | 70 | 80 | 100 | – | – | – | – | –
O=C1c2ccccc2C(=O)N1Cc1ccc(C2COC(c3c(F)cccc3F)=N2)cc1 (stereo not shown) [Compound R1-10] | 70 | 80 | 95 | 100 | 100 | 85 | 90 | 100 | 100 | 75 | higher acaricidal activity than etoxazole | 40 | 40 | mortality at 0.05 µg/mL [1]: 55%; mortality at 0.05 µg/mL [2]: 65%; activity on mite eggs, times that of etoxazole [2]: 10 times
CC(=O)N1CCN(Cc2ccc(C3COC(c4c(F)cccc4F)=N3)cc2)C1=O (stereo not shown) [Compound R1-8] | – | 35 | 65 | 95 | 100 | – | 40 | 95 | 100 | – | – | – | – | –
Cc1ccc2ccn(Cc3ccc(C4COC(c5c(F)cccc5F)=N4)cc3)c2c1 (stereo not shown) [Compound R1-17] | – | 20 | 40 | 100 | 100 | 40 | 65 | 100 | 100 | – | – | – | – | –
N#Cc1ccc(S(=O)(=O)Oc2ccc(C3COC(c4c(F)cccc4F)=N3)cc2)cc1 (stereo not shown) [Compound R3-22] | – | 40 | 70 | 95 | 100 | 45 | 70 | 90 | 100 | – | – | – | – | –
O=S(=O)(Oc1ccc(C2COC(c3c(F)cccc3F)=N2)cc1)c1ccccc1F (stereo not shown) [Compound R3-11] | 50 | 80 | 90 | 100 | 100 | 50 | 80 | 95 | 100 | – | – | – | – | –
Fc1cccc(F)c1C1=NC(c2ccc(COCC(F)(F)F)cc2)CO1 (stereo not shown) [Compound R2-5] | 90 | 95 | 100 | 100 | 100 | 97 | 100 | 100 | 100 | 90 | higher acaricidal activity than etoxazole | 65 | 70 | mortality at 0.001 µg/mL [1]: 37%; mortality at 0.5 µg/mL [1]: 90%; larvicidal activity, times that of etoxazole ([1]; relative to etoxazole): 27 times; mortality at 0.001 µg/mL [2]: 47%; mortality at 0.5 µg/mL [2]: 90%; activity on mite eggs, times that of etoxazole [2]: 105 times
